Measured values: patent US11541101B1, “LEMD3 antagonizes TGF-beta-driven Smad2/3 transcription in a stiffness-dependent fashion in both the nucleus and cytosol” (University of Virginia Patent Foundation, priority 2018, dated 2023)
Peptide text beside a SMILES is read from it. * marks the point of attachment. Cbz = O=C(OCc1ccccc1)*

Key:
LEMD3 = assay: Recombinant LEMD3 fragment western blots (FLAG and V5 tags); format: cell-based, human; settings: pFLAG-LEMD3-V5 transfected cells, inhibitor treatment, FIG. 4E
Excerpt: Western Blotting—For non-phosphoprotein western blots: cell lysates from tissue culture plastic or from 2 or 25 kPa, […] Petrisoft dishes (Matrigen, Brea, Calif.) were either: harvested directly in 4× protein loading buffer (Licor, Lincoln, Nebr.) supplemented with protease and phosphatase in-hibitors (#A32959, ThermoFisher, Waltham, Mass.) according to the manufacturer's instructions; or, processed with the NE-PER compartment isolation kit (ThermoFisher, Waltham, Mass.) according to the manufacturer's instructions. Lysates were treated with 0.3 μL of benzonuclease (ThermoFisher, Waltham, Mass.) for 15 minutes at room temperature with vigorous shaking. Samples were heated to 95 C for 5 minutes and run on a 4-12% Bis-Tris gel in 1×MES buffer and run for 70 minutes at 150V. The gel was then transferred to a nitro-cellulose membrane using the XCell Blot Module (ThermoFisher, Waltham, Mass.) at 25V for 65 min-utes. Membranes were air-dried for an hour, blocked with 5% non-fat milk in 1×PBS for an hour at room temperature, and then incubated with primary antibodies as described in Table 3 in 1×PBS-T with 1% milk for 16-24 hours at 4 C. Near-IR or HRP conjugated secondaries as described in Table 4 were then incubated with the blot and imaged subsequently on either an Odyssey CLx system for near-IR dyes (Licor, Lincoln, Nebr.) or a ChemiDoc MP system (Bio-Rad, Hercules, Calif.) with SuperSignal West Femto reagents (ThermoFisher, Waltham, Mass.) for HRP secondaries according to the manufacturer's instructions. Band analysis was performed using the associated Licor or Biorad software.
For recombinant LEMD3 western blots: Two samples of HFFs were prepared and electro-porated as above and plated onto each plastic or hydrogel surface for 12 hours (protease inhibitor experiments) or 24 hours (LEMD3 fragment abundance and deletion mutant experiments) before harvesting. qPCR—RNA was isolated from cultured cells using RNEasy Plus Mini kits (Qiagen, Hilden, Germany) according to the manufacturer's instructions. cDNA libraries were constructed using RT2 First Strand kit (Qiagen, Hilden, Germany) according to the manufacturer's instruction. 25 μL qPCR reactions were prepared using SYBR Green Master Mix (ThermoFisher, Waltham, Mass.) with 250 nM primers, listed in Table 3 and 10 ng input cDNA. Reactions were carried out on a StepOnePlus (ThermoFisher, Waltham, Mass.) for 40 cycles. Melt curves were visually inspected after each run to confirm a single, defined peak in the derivated intensity plot. Data from each run was imported into LinRegPCR, which performed baseline correction and measured PCR efficiency by amplicon group as described in (81). The relative number of transcripts was calculated by dividing the Cq threshold by the PCR efficiency for the reaction raised to the power of Cq, the cycle number at which the threshold is reached for a given target. For relative quantification be-tween conditions, LEMD3 transcripts were either: normalized for each condition to the mean of two reference genes, 18S and ACTB, if the samples were all from a single stiffness condition; or, normalized to 18S alone if substrate stiffness was an experimental condition.

[1] = pulmonary fibrosis; cited from earlier work
Smad-driven luciferase = Smad-driven luciferase assay on substrates of varying stiffness; format: cell-based, human
Protocol: Smad-Driven Luciferase Assays—HFFs were transfected with Cignal Lenti Reporter virus (Qiagen, Hilden, Germany) with a MOI of 40 and subsequently selected using 400 ng/mL puromycin until untransduced HFFs died. Stably transfected HFFs, with or without additional LEMD3-focused genetic treatments as described above, were plated at 10,000 cells/well on a HTS plate (Matrigen, Brea, Calif.) containing glass surfaces and polyacrylamide gels, which ranged in stiffness from 0.2 kPa to 50 kPa, all functionalized with 10 μg/mL plasma-purified human fibronectin according to the manufacturer's instruction. Cells adhered to the surfaces for 4 hours in serum-free DMEM supplemented with 1% BSA and 1% penicillin/streptomycin. Media was then supplemented with the desired amounts of TGFβ and, when applicable, with cytoskeletal agents as described in the results. HFFs were then incubated for 16 hours at 37 C before the luciferase re-action. Wells were supplemented to 2 mM VivoGlo d-luciferin (Promega, Madison, Wis.) using a plate reader controlled auto-injector system and light production was subsequently quantified every 5 minutes for 30 minutes on a Synergy H4 plate reader (BioTek, Winooski, Vt.). The raw luciferase signal was the median intensity measured over this timecourse minus the intensity from luciferase-transfected cells not treated with TGFβ to account for any TGFβ elaborated and activated by the cells in situ. Cells were then fixed with 4% paraformaldehyde, permeabilized with 0.1% Triton X-100, and then stained with 1:10,000 Hoechst 33342 in 1×PBS for 30 minutes at room temperature (ThermoFisher, Waltham, Mass.). The raw luciferase signal was then normalized to the nuclear signal, which was inside a linear standard curve form cells plated on glass and on polyacrylamide within each plate. Data for each condition was then fit to a three-parameter logistic equation using a least-squares minimization fit in Prism (Graph-Pad, La Jolla, Calif.). […] Otherwise, the trends across the maximal luciferase signal (“Top” variable from the model) or the mid-transition point observed between “Bottom” and “Top” signals (“EC50” variable from the model, called “transition point” in text), were statistically compared using an ANOVA with “Test for Trends,” which restricts the hypothesis testing to a particular order of the data-sets (e.g. max luciferase signal as a function of increasing TGFβ dose or transition point as a function of increased LEMD3 expression). Each data point represents at least three biological replicates.

LEMD3-Smad2/3 complexes = assay: LEMD3-Smad2/3 proximity ligation assay (PLA); format: cell-based, human
Protocol: In vitro PLA: Protein-protein PLA was per-formed with antibody pairs listed in Table 4 as described in (42) with the following modifications: cells were plated on FN-coated glass or hydrogels (Matrigen, Brea, Calif.). All primary antibody in-cubations were performed for 16-24 hours at 4 C and cells were counter-stained with 1:40 phalloidin-488 or phalloidin-546 in 1×PBS for 30 minutes at room temperature and/or further processed for IF imaging using the procedure recommended in Sigma's PLA Resource Center. For all recombinant LEMD3 and C-terminal fragment experiments, HFFs were electroporated as above and allowed to culture for 24 hours on 10 μg/mL fibronectin coated glass or hydrogels before fixation. For LEMD3-phospho-Smad2/3, LEMD3-Smad2/3+TGFβ and for Smad2/3-Smad4 PLA assays: cells were treated 90 minutes before fixation with 50 μg/mL for LEMD3- and CTF-Smad2/3 assays, 100 μg/mL TGFβ for LEMD3-phospho-Smad2/3 experiments and 500 μg/mL TGFβ for Smad2/3-Smad4 experiments. For FLAG post-staining of PLA processed tissues, cells were blocked with unlabelled AffiniPure donkey anti-rabbit antibodies (Jackson ImmunoResearch, West Grove, Pa.) at a 1:10 dilution in 1×PBS-T at room temperature for 1 hour before further IF processing with 1:1000 rabbit anti-FLAG (#F7425, Sigma-Aldrich, Darmstadt, Germany) for 1 hour in PBS-T at room temperature. Following three washes with PBS-T for 5 minutes, each sample was stained with 1:500 goat anti-rabbit 546 in PBS-T for 1 hour at room temperature, washed again and then counter-stained as above. For V5 post-staining of PLA processed samples, cells were incubated with 1:200 647 labelled anti-V5 antibody (R&D Systems, Minneapolis, Minn.) diluted in PBS-T at room tem-perature for 1 hour before washing three times in PBS-T for 5 minutes each and then counter-stained as above. Imaging and analysis were performed as described for high-resolution ex vivo PLA signals except that no tissue autofluorescence signal was measured or needed to be subtracted and, when appro-priate, other IF signal (e.g. FLAG) were measured in parallel. For cells on Matrigen HTS plates (FIGS. 2c & 2d), the confluence of cells prevented identifying individual cell boundaries. Instead the PLA signal was quantified as the PLA volume divided by the nuclear intensity for each image. Each data point represents at least 3 unique surfaces with at least 12 cells measured per surface. For Smad2/3-Smad4 experiments, only two independent hydrogels were analyzed for the “CTF 500 μg/mL” and “Neon 500 μg/mL” groups due to loss of hydrogels during processing. Each bar in FIG. 5D represents the mean with standard error of the mean for all the cells analyzed from that condition.

Smad3 phosphorylation = assay: phospho-Smad3 to total Smad3 ratio by western blot; format: cell-based, human; settings: 100 μg/mL for 90 minutes, relative to untreated HFFs, p=0.0506
Smad2/3-Smad4 complexes = assay: Smad2/3-Smad4 PLA; format: cell-based, human; settings: 500 μg/mL, HFFs on 1 kPa hydrogels, relative to untreated HFFs, p=0.001
Protocol: (§1) In vitro PLA: Protein-protein PLA was per-formed with antibody pairs listed in Table 4 as described in (42) with the following modifications: cells were plated on FN-coated glass or hydrogels (Matrigen, Brea, Calif.). All primary antibody in-cubations were performed for 16-24 hours at 4 C and cells were counter-stained with 1:40 phalloidin-488 or phalloidin-546 in 1×PBS for 30 minutes at room temperature and/or further processed for IF imaging using the procedure recommended in Sigma's PLA Resource Center. […] Imaging and analysis were performed as described for high-resolution ex vivo PLA signals except that no tissue autofluorescence signal was measured or needed to be subtracted and, when appro-priate, other IF signal (e.g. FLAG) were measured in parallel. […] Instead the PLA signal was quantified as the PLA volume divided by the nuclear intensity for each image. Each data point represents at least 3 unique surfaces with at least 12 cells measured per surface. For Smad2/3-Smad4 experiments, only two independent hydrogels were analyzed for the “CTF 500 μg/mL” and “Neon 500 μg/mL” groups due to loss of hydrogels during processing. Each bar in FIG. 5D represents the mean with standard error of the mean for all the cells analyzed from that condition.

[2] = tested on: LEMD3-phospho-Smad2/3 interactions; assay: LEMD3-phospho-Smad2/3 PLA; format: cell-based, human; settings: 100 μg/mL, HFFs on glass, vs untreated fibroblasts, p=0.0333
Protocol: as §1

Smad2/3 = assay: V5-Smad2/3 PLA with recombinant LEMD3 / CTF; format: cell-based, human; settings: 50 μg/mL, 1 kPa or 25 kPa substrates, p=0.98 and p=0.99
Protocol: as §1

[3] = 10 μM, relative to HFFs treated with TGFβ alone, FIG. 1D

With `O=c1oc(Cl)c(Cl)c2ccccc12` [DCI, 3,4 dichloroisocoumarin] as the compound, how does the “60 kDa FLAG fragment relative to full length” value (LEMD3) read?
Its value is “reduced”.

Which “85 kDa V5 fragment abundance” value (LEMD3) does the source give for `CCOC(=O)[C@H]1O[C@@H]1C(=O)N[C@@H](CC(C)C)C(=O)NCCC(C)C` [E64d, E-64D] here?
Its value is “potentiated”.

With `CC(C)C[C@@H](C=O)NC(=O)[C@H](CC(C)C)NC(=O)[C@H](CC(C)C)NC(=O)OCc1ccccc1` [MG-132] (Cbz-Leu-Leu-Leu-aldehyde) as the compound, how does the “60 kDa FLAG fragment relative to full length” value (LEMD3) read?
Its value is “also reduced”.

For `CNC(=O)C(CCc1ccccc1)NC(=O)C(CC(=O)NO)CC(C)C` (stereo not drawn) [MMPi], which “85 kDa V5 fragment abundance” value (LEMD3) is on record?
Its value is “potentiated”.

Which disease progression [1] does the source give for `Cc1ccc(=O)n(-c2ccccc2)c1` [Pirfenidone] here?
The disease progression was “slowing of disease progression”.

What does the source list for `Cc1ccc2c(c1)C(=O)C1(O)CCN(c3ccccc3)C1=N2` (stereo not drawn) [blebbistatin, Blebbistatin]?
maximal luminescence (Smad-driven luciferase; [3]): nor increase the maximal luminescence; transition point (Smad-driven luciferase; [3]): did not significantly shift

With `C=C1[C@@H](C)[C@H]2[C@H](Cc3ccccc3)NC(=O)[C@]23[C@H](OC(C)=O)/C=C/[C@@](C)(O)C(=O)[C@@H](C)C/C=C/[C@H]3[C@@H]1O` [cytochalasin D, Cytochalasin D] as the compound, how does the “total frequency of LEMD3-Smad2/3 complexes” value (LEMD3-Smad2/3 complexes; 2 μM for 90 minutes, fibroblasts on glass, p=0.0089) read?
The value was “increase”.

What about the “frequency of LEMD3-Smad2/3 complexes, cytosolic compartment” value (LEMD3-Smad2/3 complexes; 2 μM for 90 minutes, glass, p=0.0871) of the same compound?
The value was “also increased”.

And the “frequency of LEMD3-Smad2/3 complexes, nuclear compartment” value (LEMD3-Smad2/3 complexes; 2 μM for 90 minutes, glass, p=0.5657)?
Its value is “also increased”.

What about the “luminescent profile over increasing ECM stiffness” value (Smad-driven luciferase; 2 μM, FIG. 1D, data did not converge to a sigmoidal model) of the same compound?
Its value is “low, flat luminescent profile”.

What does the source list for `C/C1=C\[C@H](C)C[C@H](C)OC(=O)C[C@H](c2ccc(O)cc2)NC(=O)[C@@H](Cc2c(Br)[nH]c3ccccc23)N(C)C(=O)[C@H](C)NC(=O)[C@@H](C)C1` [jasplakinolide, Jasplakinolide]?
LEMD3-Smad2/3 interactions, total (LEMD3-Smad2/3 complexes; 100 nM and 200 nM for 2 hours, 1 kPa hydrogels, vs DMSO p<0.0001): dose-dependent decrease; LEMD3-Smad2/3 complex formation, cytoplasm (LEMD3-Smad2/3 complexes; 100 nM and 200 nM, 1 kPa hydrogels, vs DMSO p<0.0001): Significant reductions; LEMD3-Smad2/3 complex formation, nucleus (LEMD3-Smad2/3 complexes; 100 nM p=0.0466, 200 nM p=0.002 vs DMSO, 1 kPa hydrogels): Significant reductions

Which results are given for `CC[C@H](CO)Nc1nc(NCc2ccccc2)c2ncn(C(C)C)c2n1` [roscovitine]?
46 kDa V5 fragment abundance (LEMD3): significantly increasing; 60 kDa FLAG fragment relative to full length (LEMD3): significantly reducing

What does the source list for “TGFβ: Recombinant human TGF-β, R&D Systems 240-B”?
LEMD3-Smad2/3 interactions with TGFβ dosing (LEMD3-Smad2/3 complexes; 50 μg/mL, 1 kPa and 25 kPa hydrogels): unperturbed by TGFβ dosing; ratio of phospho-Smad3 to total Smad3 (Smad3 phosphorylation): increased the ratio of phospho-Smad3 to total Smad3; TGFβ dose-response of luminescence (Smad-driven luciferase; HFFs on stiff substrates, p<0.0001, FIG. 1B): increasing luminescence with increasing TGFβ dose; shift of the sigmoid transition point with increasing pg/mL doses (Smad-driven luciferase; HFFs, p=0.07, FIG. 1B): shift the transition point of the sigmoid towards softer substrates; stiffness at which transition points occurred (Smad-driven luciferase; pg/mL dose-range of TGFβ): 1-4 kPa; Smad2/3-Smad4 complexes (Smad2/3-Smad4 complexes): increase; LEMD3-phospho-Smad2/3 interactions [2]: significantly higher; CTF-Smad2/3 interaction frequency with TGFβ dosing (Smad2/3): did not significantly vary
